Experimental data taken from ChEMBL document CHEMBL1201862, “PubChem BioAssay data set” (2004).
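Step 1: Grow cells in 96-well plates. Step 2: Expose to compound for 48 hours at 5 concentrations. Step 3: Interpolate endpoints linearly; if unreached, use highest concentration. GI50: concentration for 50% inhibition of growth.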 The source made the active and inactive calls. Cut-off read from the data, not from the text of the source: active = GI50 up to about 1.1 µM and inactive = higher.

Experiments:
Experiment in all cases: NCI anticancer screen, dose series, 48 h
A498 = test system: A498
RPMI-8226 = test system: RPMI-8226
K562 = test system: K562
LOX IMVI = test system: LOX IMVI
OVCAR-5 = test system: OVCAR-5
UACC-62 = test system: UACC-62
786-0 = test system: 786-0
NCI-H226 = test system: NCI-H226
SN12C = test system: SN12C
NCI-H23 = test system: NCI-H23
SK-MEL-28 = test system: SK-MEL-28
IGROV-1 = test system: IGROV-1
SF-295 = test system: SF-295
RXF 393 = test system: RXF 393
Malme-3M = test system: Malme-3M
SK-OV-3 = test system: SK-OV-3
SW-620 = test system: SW-620
OVCAR-8 = test system: OVCAR-8

Measured: GI50

COc1cc2cc3c4c(cc(OC)c(OC)c4c2cc1OC)CCN3C(=O)CCCC(=O)O
inactive: A498 > 100 µM | RPMI-8226 > 100 µM | K562 > 100 µM | LOX IMVI > 100 µM | OVCAR-5 > 100 µM | UACC-62 > 100 µM | 786-0 > 100 µM | NCI-H226 > 100 µM | SN12C > 100 µM | NCI-H23 > 100 µM | SK-MEL-28 > 100 µM | IGROV-1 > 100 µM | SF-295 > 100 µM | RXF 393 > 100 µM | Malme-3M > 100 µM | SK-OV-3 > 100 µM | SW-620 > 100 µM

O=C(Nc1ccc(Cl)cc1)C1C(=O)C(=O)N(c2ccc(Cl)cc2)C1=O (stereo not given)
inactive: A498 60.7 µM | RPMI-8226 > 100 µM | K562 41.1 µM | LOX IMVI > 100 µM | OVCAR-5 > 100 µM | UACC-62 > 100 µM | 786-0 > 100 µM | OVCAR-8 > 100 µM | NCI-H226 > 100 µM | SN12C 81.1 µM | NCI-H23 > 100 µM | SK-MEL-28 > 100 µM | IGROV-1 > 100 µM | SF-295 93.8 µM | RXF 393 > 100 µM | Malme-3M > 100 µM | SK-OV-3 > 100 µM | SW-620 > 100 µM

NN/C(Cc1ccccc1)=N/NC(N)=S
inactive: A498 > 100 µM | RPMI-8226 > 100 µM | K562 > 100 µM | LOX IMVI 82.6 µM | OVCAR-5 > 100 µM | UACC-62 > 100 µM | 786-0 > 100 µM | OVCAR-8 > 100 µM | NCI-H226 > 100 µM | NCI-H23 > 10 µM | SK-MEL-28 > 100 µM | IGROV-1 > 100 µM | SF-295 > 100 µM | RXF 393 > 100 µM | Malme-3M > 100 µM | SK-OV-3 > 100 µM | SW-620 > 100 µM

N=C(N)/N=C(/C=C/c1ccccc1)CC1OC(=O)c2ccccc21 (stereo not given)
inactive: A498 > 100 µM | RPMI-8226 > 100 µM | K562 > 100 µM | LOX IMVI > 100 µM | UACC-62 42 µM | 786-0 > 100 µM | OVCAR-8 > 100 µM | NCI-H226 > 100 µM | SN12C > 100 µM | IGROV-1 > 100 µM | SF-295 > 10 µM | RXF 393 > 100 µM | Malme-3M > 100 µM | SW-620 > 100 µM

CN/C(=N\C#N)N(Cc1ccccc1)Cc1ccccc1
inactive: A498 > 100 µM | RPMI-8226 > 100 µM | LOX IMVI > 100 µM | OVCAR-5 > 100 µM | UACC-62 > 100 µM | 786-0 > 100 µM | OVCAR-8 > 100 µM | NCI-H226 > 100 µM | SN12C > 100 µM | NCI-H23 > 100 µM | SK-MEL-28 > 100 µM | IGROV-1 > 100 µM | SF-295 > 100 µM | Malme-3M > 100 µM | SK-OV-3 > 100 µM | SW-620 > 100 µM

COc1ccc(NC(=O)C2=CC(=O)c3ccc(O)cc3C2=O)c(OC)c1
inactive: A498 > 100 µM | RPMI-8226 > 100 µM | K562 > 100 µM | LOX IMVI > 100 µM | OVCAR-5 > 100 µM | UACC-62 > 100 µM | 786-0 > 100 µM | OVCAR-8 > 100 µM | NCI-H226 > 100 µM | SN12C > 100 µM | NCI-H23 > 100 µM | SK-MEL-28 > 100 µM | IGROV-1 > 100 µM | SF-295 > 100 µM | RXF 393 > 100 µM | Malme-3M > 100 µM | SW-620 > 100 µM

O=c1ccn(/C=C/C(O)C(O)CO)c(=O)[nH]1 (stereo not given)
inactive: A498 > 100 µM | RPMI-8226 > 100 µM | K562 > 100 µM | LOX IMVI > 100 µM | OVCAR-5 > 100 µM | UACC-62 > 100 µM | 786-0 > 100 µM | OVCAR-8 > 100 µM | NCI-H226 > 100 µM | SN12C > 100 µM | NCI-H23 > 100 µM | SK-MEL-28 > 100 µM | IGROV-1 > 100 µM | SF-295 > 100 µM | Malme-3M > 100 µM | SK-OV-3 > 100 µM | SW-620 > 100 µM

O=C(N/C(=C\c1ccc([N+](=O)[O-])cc1)c1nc2ccccc2s1)c1ccccc1
inactive: A498 31.3 µM | RPMI-8226 19.2 µM | K562 17.7 µM | LOX IMVI 20 µM | OVCAR-5 54.7 µM | UACC-62 20.4 µM | 786-0 18 µM | OVCAR-8 24.6 µM | SN12C 20.9 µM | NCI-H23 19.7 µM | SK-MEL-28 39.5 µM | IGROV-1 23 µM | RXF 393 28.6 µM | Malme-3M > 100 µM | SK-OV-3 > 100 µM | SW-620 26.7 µM

CCOC(=O)CC(NC(=O)c1nc[nH]c1[N+](=O)[O-])C(=O)OCC (stereo not given)
inactive: A498 61.7 µM | RPMI-8226 29.2 µM | K562 38.2 µM | LOX IMVI 60.1 µM | UACC-62 66.1 µM | 786-0 52 µM | OVCAR-8 32.1 µM | NCI-H226 23 µM | SN12C 42.5 µM | NCI-H23 22.6 µM | SK-MEL-28 > 100 µM | IGROV-1 40.5 µM | SF-295 33.5 µM | Malme-3M > 100 µM | SK-OV-3 > 100 µM | SW-620 37.2 µM

COc1cc(CC2c3cc(OC)c(OC)cc3CCN2C)c(C(=O)O)cc1OC (stereo not given)
inactive: A498 > 100 µM | RPMI-8226 > 100 µM | K562 > 100 µM | LOX IMVI > 100 µM | OVCAR-5 > 100 µM | UACC-62 > 100 µM | 786-0 > 100 µM | OVCAR-8 > 100 µM | NCI-H226 > 100 µM | SN12C > 100 µM | NCI-H23 > 100 µM | SK-MEL-28 > 100 µM | SF-295 > 100 µM | RXF 393 > 100 µM | Malme-3M > 100 µM | SK-OV-3 > 100 µM | SW-620 > 100 µM

CCC1CC(C)=CCN1S(=O)(=O)c1ccc(C)cc1 (stereo not given)
inactive: A498 42.6 µM | RPMI-8226 3.89 µM | K562 7.5 µM | LOX IMVI 15.9 µM | OVCAR-5 28 µM | UACC-62 15.5 µM | 786-0 33.5 µM | OVCAR-8 36.5 µM | NCI-H226 28.2 µM | SN12C 9.57 µM | SF-295 32.7 µM | Malme-3M 17.3 µM | SK-OV-3 24.5 µM | SW-620 > 10 µM

CCOC(=O)/C(O)=C(/C(=O)OC)c1ccc(Cl)cc1
inactive: A498 > 100 µM | RPMI-8226 > 100 µM | K562 > 100 µM | LOX IMVI > 100 µM | OVCAR-5 > 100 µM | UACC-62 > 100 µM | 786-0 > 100 µM | OVCAR-8 > 100 µM | SN12C > 100 µM | NCI-H23 > 100 µM | SK-MEL-28 > 100 µM | IGROV-1 > 100 µM | SF-295 > 100 µM | Malme-3M > 100 µM | SK-OV-3 > 100 µM | SW-620 > 100 µM

Nc1ccc(CCN2CCN(c3cccc(C(F)(F)F)c3)CC2)cc1
inactive: A498 80.9 µM | RPMI-8226 45.2 µM | K562 70.1 µM | LOX IMVI > 100 µM | OVCAR-5 > 100 µM | UACC-62 > 100 µM | 786-0 84.3 µM | OVCAR-8 > 100 µM | NCI-H226 91.4 µM | SN12C > 100 µM | NCI-H23 > 100 µM | SK-MEL-28 > 100 µM | IGROV-1 > 100 µM | SF-295 97.5 µM | RXF 393 89.5 µM | Malme-3M > 100 µM | SK-OV-3 > 100 µM

COc1ccc2c(c1)[n+]([O-])c(C(=O)C/C(=N/OCCCc1ccccc1)C(=O)NC13CC4CC(CC(C4)C1)C3)c(C)[n+]2[O-]
inactive: A498 > 100 µM | RPMI-8226 > 100 µM | K562 82.8 µM | LOX IMVI > 100 µM | OVCAR-5 > 100 µM | UACC-62 > 100 µM | 786-0 > 100 µM | OVCAR-8 > 100 µM | NCI-H226 > 100 µM | SN12C > 100 µM | NCI-H23 > 100 µM | SK-MEL-28 > 100 µM | IGROV-1 > 100 µM | SF-295 > 100 µM | Malme-3M > 100 µM | SK-OV-3 > 100 µM | SW-620 > 100 µM

C1=CC2SSSC2C1 (stereo not given)
inactive: RPMI-8226 > 100 µM | K562 > 100 µM | LOX IMVI > 100 µM | OVCAR-5 > 100 µM | UACC-62 > 100 µM | 786-0 > 100 µM | OVCAR-8 > 100 µM | NCI-H226 > 100 µM | SN12C > 100 µM | NCI-H23 > 100 µM | SK-MEL-28 > 100 µM | IGROV-1 > 100 µM | SF-295 > 100 µM | RXF 393 > 100 µM | Malme-3M > 100 µM | SK-OV-3 > 100 µM | SW-620 > 100 µM

CCCCC(C(=O)C(=O)Nc1ccc(C)cc1C)C(=O)C(C)C (stereo not given)
inactive: A498 > 100 µM | RPMI-8226 > 100 µM | K562 > 100 µM | LOX IMVI > 100 µM | OVCAR-5 > 100 µM | UACC-62 > 100 µM | 786-0 > 100 µM | OVCAR-8 > 100 µM | NCI-H226 > 100 µM | SN12C > 100 µM | NCI-H23 > 100 µM | SK-MEL-28 > 100 µM | IGROV-1 > 100 µM | SF-295 > 100 µM | RXF 393 > 100 µM | Malme-3M > 100 µM | SW-620 > 100 µM

CCOC(=O)/C(=C/c1ccccc1)N(CC)CC
inactive: A498 > 100 µM | RPMI-8226 > 100 µM | K562 > 100 µM | LOX IMVI 94.4 µM | OVCAR-5 > 100 µM | UACC-62 > 100 µM | 786-0 > 100 µM | OVCAR-8 > 100 µM | NCI-H226 > 100 µM | SN12C > 100 µM | NCI-H23 > 100 µM | SK-MEL-28 > 100 µM | IGROV-1 > 100 µM | SF-295 > 100 µM | Malme-3M > 100 µM | SK-OV-3 > 100 µM | SW-620 > 100 µM
